Assay results from patent US20090312284A1, “HISTONE DEACETYLASE INHIBITORS WITH COMBINED ACTIVITY ON CLASS-I AND CLASS-IIB HISTONE DEACETYLASES IN COMBINATION WITH PROTEASOME INHIBITORS” (priority 2006, published 2009).

What was measured:
[1] = tested on: acetylation of histone H3 and H4 and induction of p21waf1,cip1; assay: Acetylation of cellular HDAC 1 substrates and induction of p21waf1,cip1 in A2780 cells; format: cell-based, human; settings: A2780 ovarian carcinoma cells, 24 h, 0-3000 nM, Western blot
Protocol: Total cell lysates were prepared and analysed by SDS-PAGE. Levels of acetylated H3 and H4 histones, total level of H3 proteins and levels p21^waf1,cip1 protein were detected using rabbit polyclonal and mouse monoclonal antibodies, followed by enhanced chemoluminescence (ECL) detection.
Appropriate dilutions of antibodies were incubated for either 1-2 h at room temperature or overnight at 4° C. […] Protein-antibody complexes were then visualized by chemiluminescence (Pierce Chemical Co) or fluorescence (Odyssey) according to the manufacturer's instructions. The experiments were performed three times.

[2] = tested on: acetylation of tubulin and induction of Hsp 70; assay: Acetylation of tubulin and induction of Hsp 70 in A2780 cells; format: cell-based, human; settings: A2780 ovarian carcinoma cells, 24 h, 0-3000 nM, Western blot
Protocol: Total cell lysates were prepared and analysed by SDS-PAGE. […] Hsp 70 protein was detected with an antibody from Stressgen (Cat. nr. SPA-810), followed by ECL detection. Appropriate dilutions of antibodies were incubated for either 1-2 h at room temperature or overnight at 4° C. In order to control for equal loading, blots were stripped and re-probed with mouse monoclonal anti-actin IgM (Ab-1, Oncogene Research Products). […] Protein-antibody complexes were then visualized by chemiluminescence (Pierce Chemical Co) or fluorescence (Odyssey) according to the manufacturer's instructions. The experiments were performed three times.

HCT-116 cells = settings: p21waf1,cip1 deficient cells as compared to the parental HCT-116 cells; cited from earlier work

## O=C(CCCCCCC(=O)Nc1ccccc1)NO [SAHA, suberoylanilide hydroxamic acid]
[1]
  concentration when induction of acetylation of histone H3 and H4 and induction of p21waf1,cip1 is observed: 3000 nM
[2]
  concentration when start of induction of acetylation of tubulin and induction of Hsp 70 is observed: 100 nM

## Cc1[nH]c2ccccc2c1CCNCc1ccc(/C=C/C(=O)NO)cc1 [LBH-589]
[2]
  concentration when start of induction of acetylation of tubulin and induction of Hsp 70 is observed: 30 nM

## CC(/C=C/C(=O)NO)=C\[C@@H](C)C(=O)c1ccc(N(C)C)cc1 [trichostatin A]
HCT-116 cells
  increase in resistance to the HDAC inhibitor: 6 fold

## O=C(NO)c1cnc(N2CCN(S(=O)(=O)c3ccc4ccccc4c3)CC2)nc1 [R306465]
[1]
  concentration when induction of acetylation of histone H3 and H4 and induction of p21waf1,cip1 is observed: 100 nM
